Data as given in US11719696B2, “Methods and compounds for diagnosing threonyl-tRNA synthetase-associated diseases and conditions” (The University of Vermont and State Agricultural College, priority 2012, dated 2023).
One block for each molecule: values may come before it.

Columns and labels:
human TARS = assay: GTPase (GTP hydrolysis) assay; format: biochemical; conditions: for change in TARS GTPase activity upon treatment: 10 μM compound
[1] = tested on: chorioallantoic membrane (CAM); assay: Chick chorioallantoic membrane (CAM) assay; format: in vivo, chicken; conditions: for CAM vessel formation / vascularization on application of protein: purified protein applied daily to sponge on CAM, 72 h
Procedure: Chick Chorioallantoic Membrane Assay—Fertilized chicken eggs (Sunrise Farms, Catskill, N.Y.) day 1-2 post-laying were incubated in a humidified incubator at 37° C. for 72 h. Cleaned eggs were cracked and plated in a sterile 10 cm^2 tissue culture-treated dish and incubated at 37° C. for another 7 days. On developmental day 10, 1 mm sterile gelatin sponge pieces (Surgifoam®; Johnson & Johnson Wound Management, Somerville, N.J.) were placed within the outer one-third of the membrane between large vessels. 40 μg/ml human bFGF and 2 μg/ml human VEGF were used as pro-angiogenic control compounds; 100 μg/mL retinoic acid (Sigma-Aldrich, St. Louis, Mo.) diluted in phosphate-buffered saline (PBS) was used as an angiostatic control. All compounds were applied in 10 μl to the CAM every 24 h for 72 h. Images were taken using a Leica MZ6 stereomicroscope every 24 h. Compounds were scored according to a modified version of Intensity Scoring as previously described (Ribatti, Nico et al. 2006). Briefly, each experimental condition was given a blinded score from 0-5 based on the change in the extent of vessel convergence and formation in proximity to the sponge from day 0 to day 3. Total score is averaged individual experimental condition scores from at least 15 replicates.
Fertilized chicken embryos were cultured ex-ova and, starting at developmental day 10, agents were applied daily to gelfoam sponges on the CAM. Images were recorded daily over 72 h and scored blindly according to a modified version Intensity Scoring as previously described (Ribatti, Nico, 2006). Additional details regarding methods are provided in the Methods and Materials section of Example 1.

[2] = tested on: SK-OV3 ovarian cancer cells; assay: HIF-1α stabilization in hypoxia (Western blot); format: cell-based, Human
Procedure: Co-Immunoprecipitation—Plasmids expressing biotinylatable TARS (pTARS) and myc-tagged VHL (pVHL) were transfected into HEK293 cells, and then extracts were prepared. Biotin-TARS was precipitated using streptavidin-coupled beads. Myc-VHL was precipitated using anti-myc antibodies. Precipitates were separated by SDS-PAGE, transferred and blots probed with anti-TARS antibody or anti-myc (VHL) antibody. Western blot—After treatments, cells were harvested into sample buffer containing: 0.2 M Tris-HCL, 4% SDS, 4% β-mercaptoethanol, 40% glycerol, 4 μM pyronin Y. Extracts were sheared through a 24-gauge syringe. Samples were separated by 10% SDS-PAGE and transferred to nitrocellulose membrane and probed with rabbit polyclonal anti-TARS (1:500; Santa Cruz Biotechnology, Dallas, Tex.) or monoclonal anti-HIF-1α (BD Transduction Laboratories, [BD Biosciences, San Jose, Calif.]) (Lounsbury, Beddow et al., 1994). […] Major bands and their empty vector counterparts were detected using SilverSNAP Stain Kit II (Pierce) and excised. […] Peptides were analyzed by electospray ionization (ESI) liquid chromatography mass spectrometry (LC-MS). […] Spectra were obtained using collision-induced dissociation with an LTQ linear quadrupole ion trap-Orbitrap mass spectrometer (Thermo Electro, San Jose, Calif.) and analyzed using SEQUEST (Bioworks software package, version 3.3.1; Thermo Electron, San Jose, Calif.). […]

HUVECs [3] = assay: Endothelial cell proliferation assay (alamarBlue); format: cell-based, Human; conditions: 10 nM BC194 with 50 ng/ml VEGF, low serum media
Procedure: Endothelial Cell Proliferation Assay—The […] alamarBlue® (Invitrogen) reagent was used to assess cell proliferation (Ahmed, Gogal et al. 1994). HUVECs were seeded in a 96-well dish (1×10^3 cells/well) and grown for 48 h in EGM®-2 media. Cells were incubated in 0.2% FBS EGM®-2 media or EGM®-2 complete media as indicated; VEGF (50 ng/ml) and media alone served as controls. After 48 h, 72 h, or 96 h in culture, 10 μl/well premixed alamarBlue® (Invitrogen) was added and after 3 h at 37° C. the amount of reduced alamarBlue® was quantified by fluorescence (excitation at 530 nm, emission at 590 nm) on a microplate reader (Synergy™ HT, BioTek, Winooski, Vt.).

[4] = tested on: Human umbilical vein endothelial cells (HUVECs); assay: In vitro endothelial tube formation assay; format: cell-based
Procedure: In vitro Tube Formation Assay—Tube formation assays were performed as described (Arnaoutova and Kleinman 2010; Cassavaugh, Hale et al., 201). Human Umbilical Vein Endothelial Cells (HUVECs) were seeded in 48-well plates (1.5×10^4 cells/well) coated with 100 μl of Matrigel™ Basement Membrane Matrix Growth Factor Reduced (BD Biosciences, San Jose, Calif.) and incubated in Clonetics® EGM®-2 complete media (Lonza, Annandale, N.J.) or EGM®-2 with reduced serum (0.2% fetal bovine serum). Cells were incubated at 37° C. for 6 h then fixed in 10% formalin. Fixed samples were imaged by phase-contrast microscopy or stained with Oregon Green 488 Phalloidin (Molecular Probes, Eugene, Oreg.) then imaged with fluorescence microscopy (2× objective). Number of tubes and tube lengths (in pixels) were quantified using the Simple Neurite Tracer (Longair, Baker et al. 2011) plug-in on ImageJ software (NIH). Statistical analysis of one-way ANOVA was performed with GraphPad Software. Multiple comparisons were performed using the Tukey Test.

HUVECs [5] = assay: TARS mRNA by quantitative RT-PCR; format: cell-based, Human; conditions: HUVECs exposed to 50 ng/ml
Procedure: Quantitative RT-PCR—Total RNA was extracted from cells using the RNeasy column protocol and cDNA was generated using an Omniscript reverse transcriptase assay according to the manufacturer's instructions (Qiagen, Frederick, Md.). Primers and probes for TARS and β2-microglobulin were Assays-on-Demand (Applied Biosystems, [Life Technologies, Carlsbad, Calif.]). RT-qPCR was performed using an ABI prism 7700 Sequence Detection System (Applied Biosystems). The relative quantity of mRNA level was determined using the comparative CT (ΔΔCT) method using β2-microglobulin to normalize mRNA level (Cassavaugh, Hale et al. 2011).

[6] = canonical substrate added to human TARS

decrease in GTPase activity (human TARS; [6]): 77%
Molecule: Nc1ncnc2c1ncn2[C@@H]1O[C@H](COP(=O)(O)OP(=O)(O)OP(=O)(O)O)[C@@H](O)[C@H]1O [ATP]

Molecule: C[C@@H]1C[C@H](C)C[C@H](C)[C@@H](O)CC(=O)O[C@H]([C@@H]2CC[C@H]2C(=O)O)C/C=C/C=C(/C#N)[C@H](O)[C@@H](C)C1 [BC194, reference compound]
CAM vessel formation with inhibitor ([1]; daily application to gel sponge, basal level and after stimulation with bFGF or VEGF): inhibited vessel formation
change in TARS GTPase activity upon treatment (human TARS): no observable change
HIF-1α transcription [2]: no change
effect on VEGF proliferative response (HUVECs [3]): did not significantly reduce
tube length ([4]; HUVECs on Matrigel, range of BC194 concentrations, 6 h): unaffected
concentration required to affect tube formation relative to that required to detect unfolded protein response (phospho-eIF2a) and apoptosis (cleaved caspase-3) ([4]; fold lower): 100 fold

Molecule: C[C@@H]1C[C@H](C)C[C@H](C)[C@@H](O)CC(=O)O[C@H]([C@@H]2CCC[C@H]2C(=O)O)C/C=C/C=C(/C#N)[C@H](O)[C@@H](C)C1 [borrelidin, reference compound]
change in TARS GTPase activity upon treatment (human TARS): no observable change
HIF-1α transcription [2]: no change

increase in GTPase activity (human TARS; [6]): 26%
Molecule: C[C@@H](O)[C@H](N)C(=O)O [threonine]

Molecule: LARS: N-terminal His6-tagged human leucyl tRNA synthetase purified from E. coli
CAM vessel formation / vascularization on application of protein [1]: no observable effect

Molecule: TNF-α
TARS transcription (TARS mRNA) (HUVECs [5]): do not induce TARS transcription

Molecule: VEGF
TARS transcription (TARS mRNA) (HUVECs [5]): do not induce TARS transcription

B1: L567V TARS: BC194-resistant (borrelidin-resistant) L567V mutant of human TARS (protein, UniProt P26639 1-723, looked up, variant L567V)
Threonine--tRNA ligase 1, …: MFEEKASSPSGKMGGEEKPIGAGEEKQKEGGKKKNKEGSGDGGRAELNPWPEYIYTRLEMYNILKAEHDSILAEKAEKDSKPIKVTLPDGKQVDAESWKTTPYQIACGISQGLADNTVIAKVNNVVWDLDRPLEEDCTLELLKFEDEEAQAVYWHSSAHIMGEAMERVYGGCLCYGPPIENGFYYDMYLEEGGVSSNDFSSLEALCKKIIKEKQAFERLEVKKETLLAMFKYNKFKCRILNEKVNTPTTTVYRCGPLIDLCRGPHVRHTGKIKALKIHKNSSTYWEGKADMETLQRIYGISFPDPKMLKEWEKFQEEAKNRDHRKIGRDQELYFFHELSPGSCFFLPKGAYIYNALIEFIRSEYRKRGFQEVVTPNIFNSRLWMTSGHWQHYSENMFSFEVEKELFALKPMNCPGHCLMFDHRPRSWRELPLRLADFGVLHRNELSGALTGLTRVRRFQQDDAHIFCAMEQIEDEIKGCLDFLRTVYSVFGFSFKLNLSTRPEKFLGDIEVWDQAEKQLENSLNEFGEKWELNSGDGAFYGPKIDIQIKDAIGRYHQCATIQLDFQVPIRFNLTYVSHDGDDKKRPVIVHRAILGSVERMIAILTENYGGKWPFWLSPRQVMVVPVGPTCDEYAQKVRQQFHDAKFMADIDLDPGCTLNKKIRNAQLAQYNFILVVGEKEKISGTVNIRTRDNKVHGERTISETIERLQQLKEFRSKQAEEEF
sensitivity of the protein's CAM angiogenic effect to BC194 ([1]; protein co-applied with BC194): not inhibited
CAM vessel formation / vascularization on application of protein [1]: stimulated vessel formation

B2: R442A TARS: aminoacylation-deficient human TARS mutant, active site Arg442 substituted with alanine (protein, UniProt P26639 1-723, looked up, variant R442A)
Threonine--tRNA ligase 1, …: MFEEKASSPSGKMGGEEKPIGAGEEKQKEGGKKKNKEGSGDGGRAELNPWPEYIYTRLEMYNILKAEHDSILAEKAEKDSKPIKVTLPDGKQVDAESWKTTPYQIACGISQGLADNTVIAKVNNVVWDLDRPLEEDCTLELLKFEDEEAQAVYWHSSAHIMGEAMERVYGGCLCYGPPIENGFYYDMYLEEGGVSSNDFSSLEALCKKIIKEKQAFERLEVKKETLLAMFKYNKFKCRILNEKVNTPTTTVYRCGPLIDLCRGPHVRHTGKIKALKIHKNSSTYWEGKADMETLQRIYGISFPDPKMLKEWEKFQEEAKNRDHRKIGRDQELYFFHELSPGSCFFLPKGAYIYNALIEFIRSEYRKRGFQEVVTPNIFNSRLWMTSGHWQHYSENMFSFEVEKELFALKPMNCPGHCLMFDHRPRSWRELPLRLADFGVLHANELSGALTGLTRVRRFQQDDAHIFCAMEQIEDEIKGCLDFLRTVYSVFGFSFKLNLSTRPEKFLGDIEVWDQAEKQLENSLNEFGEKWELNSGDGAFYGPKIDIQIKDAIGRYHQCATIQLDFQLPIRFNLTYVSHDGDDKKRPVIVHRAILGSVERMIAILTENYGGKWPFWLSPRQVMVVPVGPTCDEYAQKVRQQFHDAKFMADIDLDPGCTLNKKIRNAQLAQYNFILVVGEKEKISGTVNIRTRDNKVHGERTISETIERLQQLKEFRSKQAEEEF
CAM vessel formation / vascularization on application of protein [1]: virtually indistinguishable from wild type
